Assay results published in patent publication US7303876B2 (Applera Corporation, priority 2000, dated 2007).
Read-outs that look alike come from different tables or passages of the source. Values belong to the compound of their own block, whether it stands above or below them.

How the values were obtained:
[1] = Solubility of 1% cationic surfactants in 5M chaotropic salt solutions containing 2% Tween 20
Source text: The solubilities of several cationic surfactants were examined in different chaotropic salt solutions. The cationic surfactants examined were cetyltrimethylammonium bromide (CTAB), cetyltrimethylammonium chloride (CTACl), tetradecyltrimethylammonium bromide (TTAB), tetradecyltrimethylammonium chloride (TTACl), dodecyltrimethylammonium bromide (DTAB), dodecyltrimethylammonium (DTACl), dodecylethyidimethylammonium bromide (DEDTAB), decyltrimethylammonium bromide (D10TAB), and dodecyltriphenylphosphonium bromide (DTPB). Each of the cationic surfactants tested was presented in a 1% concentration. Each of the cationic surfactants was examined in a 5M solution of one of the chaotropic salts containing 2% Tween 20. Each cationic surfactant and salt combination was tested at pH 6 (50 mM MES), pH 8 (50 mM Tris-HCl), and pH 10 (50 mM AMP).

[2] = system: Liver tissue; assay: Nucleic acid release from liver slices, pH 6, 45° C., 30 minutes, surfactants and additives; details: for amount of nucleic acid released in comparison with surfactant without an additive: FIG. 7
Description: To compare CTACl to CTAB, those two surfactants were evaluated in parallel along with hexadecyltrimethylammonium bromide (HDTAB), hexadecyltrimethylammonium chloride (HDTACl), and Sarkosyl. Three additives, phenylglyoxal, acridine orange (e.g., Sigma #A6014), and 1-methyl-2-pyrolidinone, were also evaluated. Phenylglyoxal was tested to determine if it would reduce RNAse activity. […] 1-Methyl-2-pyrrolidinone was tested to see if it would enhance solubility of the sample by various reaction compositions.
Slices of liver-tissue (100-200 mg/sample) were placed into twenty-one Eppendorf tubes. Four hundred microliters of a reaction composition, comprising 100 mM MES, pH 6, 20 mM CaCl2, and 1 mg Proteinase K, was added to each tube.
(§1) The tubes were incubated at 45° C. for 30 minutes with mixing (Eppendorf Thermomixer, Model 5436). Surfactant: protease complexes were solubilized using methods the same as or similar to those described in Example 7. Remaining tissue fragments were removed by centrifugation using methods the same as or similar to those described in Example 7. The supernatant was phenol extracted, isopropanol precipitated, and ethanol washed using methods the same as or similar to those described in Example 6.

[3] = system: Liver tissue; assay: Nucleic acid release from liver slices, pH 6, 45° C., 20 minutes, surfactants and additives; details: with Proteinase K, FIG. 5
Description: The results from Example 6 indicate that there was significant nuclease activity present in the sample. To reduce the nucleolytic activity of endogenous RNAses, the pH of the reaction composition was lowered to approximately 6.0 and the incubation temperature was decreased to 45° C. Several additives, including phenylglyoxal (Aldrich #14243-3), 1-methyl-2-pyrolidinone, RNA Later (Ambion, #7020), and Streck Tissue Fixitive (Streck Laboratories, #265138) were also tested to evaluate their effect on endogenous RNAse activity in these reaction compositions. Phenylglyoxal is known to reduce ribonuclease activity (see Takahashi, The Structure And Funtion Of Ribonuclease T1. XI. Modification Of The Single Arginine Residue In Ribonuclease T1 By Phenylglyoxal And Glyoxal, J. Biochem (Japan) 68:659-664, 1970). The product literature for RNA Later claims that the reagent stabilizes RNA in tissue and Streck Tissue Fixative is believed to preserve the integrity of tissue.
Slices of liver tissue (100-200 mg/sample) were placed into nineteen Eppendorf tubes. Four hundred microliters of a reaction composition comprising 100 mM MES (Sigma #M-5287), pH 6, 20 mM CaCl2, and 1 mg Proteinase K, was added to each tube.
The tubes were incubated at 45° C. for 20 minutes with mixing (Eppendorf Thermomixer, Model 5436). […] Undigested tissue fragments were removed by centrifugation using the methods the same as or similar to those discussed in Example 6. The supernatant was phenol extracted (saturated with 10 mM Tris HCl , pH 8, 1 mM EDTA; Sigma #P-4557), isopropanol precipitated (Aldrich #19076-4), and ethanol washed using methods the same as or similar to those described in Example 6.

[4] = system: Liver tissue; assay: Integrity of nucleic acid released from liver slices with aurintricarboxylic acid, 55° C., 30 minutes; details: 1% surfactant, FIG. 11
Description: Slices of liver tissue (77-186 mg/sample) were placed into twenty-one Eppendorf tubes. To each tube was added 400 μL of a reaction composition comprising 50 mM MES, pH 6.0, 20 mM CaCl2, and additional components as shown in Table 10.
as §1, with “55°” for “45°”, “C.” for “C. for 30 minutes”, “5436) for 30 minutes. The resulting surfactant-protease complex was” for “5436). Surfactant: protease complexes were”, “Undigested” for “Remaining”, “precipitated” for “precipitated,”

[5] = system: Liver tissue; assay: Liver tissue disaggregation by 1% surfactant with or without Proteinase K at 60° C.; set-up: Tissue Disaggregation: scale not given here; details: for Tissue Disaggregation: 60° C., 1% surfactant
Description: To evaluate the ability of various cationic surfactants to increase the digestion of tissue by Proteinase K, liver slices were digested using reaction compositions including one of the sixteen surfactants (shown in Table 4), both with and without Proteinase K. The reducing agent dithiothreitol (DTT) was included to evaluate the effect of reducing conditions on tissue digestion. […] One of the sixteen surfactants was added to one pair of tubes to yield a final concentration of 1% surfactant. The seventeenth pair of tubes served as non-surfactant controls. One milligram (mg) of Proteinase K was added to one tube of each of the seventeen pairs.
PK=presence or absence of Proteinase K in the reaction composition; Y=Proteinase K was present; N=Proteinase K was not present in the reaction composition.

[6] = Solubility of surfactants (0.5% Sarkosyl, LDS, SDS, CTAB; 5.0% others) in salt solutions; details: pH 6
Description: In certain instances, the solubility of detergents in high salt may relate to on the composition of the salt and the detergent itself. A mixing experiment was performed to examine the solubility of a variety of anionic, cationic, and nonionic surfactants in different salt compositions. […] The salt solutions contained Lil, Nal, KI, Rbl, Csl , GuSCN, GuHCl, or NaClO4, at pH 6.0 or 10.0. […] The solubility of the surfactants was scored as either soluble or insoluble. The solubility of the surfactant in the salt solution was determined initially by visual observations for cloudiness or precipitate formation. The resulting solutions were also centrifuged to verify the absence of a precipitate by the absence of a precipitate pellet.

[7] = system: slices of liver; assay: Maceration of liver slices by reaction compositions at 65° C.; details: 65° C.
Description: Initially, a series of reaction compositions were analyzed for their ability to disaggregate a biological sample, e.g., slices of liver. These reaction compositions comprised 100 mM Tris, pH 8.0, 20 mM dithiothreitol (DTT), and optionally,1 mg/ml Proteinase K, surfactants (e.g., cationic, nonionic and anionic detergents), chaotropes, or the additive 1-methyl-2-pyrollidinone (Sigma). Each reaction compositions was placed in a tube with a slice of liver and then incubated at 65° C. The tubes were observed periodically to determine which reaction compositions were able to efficiently macerate the sample.

[8] = target: T1, Proteinase K (Parengyodontium album, UniProt P06873); assay: Effect of surfactants on Proteinase K digestion of dye-labeled casein substrate; assay type: biochemical; details: 1% surfactant, 60° C., Proteinase K 0.005-20 μg/ml
T1 construct: purchased Ambion 2546
T1 sequence (P06873 106-384): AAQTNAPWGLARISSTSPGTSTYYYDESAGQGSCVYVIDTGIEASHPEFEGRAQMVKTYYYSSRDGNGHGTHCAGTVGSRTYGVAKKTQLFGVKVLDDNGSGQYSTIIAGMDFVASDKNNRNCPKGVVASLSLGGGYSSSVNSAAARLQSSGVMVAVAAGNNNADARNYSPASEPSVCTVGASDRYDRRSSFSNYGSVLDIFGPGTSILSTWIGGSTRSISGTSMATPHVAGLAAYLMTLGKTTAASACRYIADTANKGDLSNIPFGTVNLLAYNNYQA
Description: To test the effect of cationic surfactants on the activity of Proteinase K, a series of reaction compositions were prepared as follows. Reaction compositions comprised: Casein BoDipy conjugate (1 μg, 10 ng/μL), 10 mM Tris, pH 8, 20 mM CaCl2, 1% surfactant (shown in Table 2 below) and a dilution series of Proteinase K at concentrations of 20 μg/ml, 5 μg/ml, 1.25 μg/ml, 0.31 μg/ml, 0.078 μg/ml, 0.02 μg/ml and 0.005 μg/ml. […] Reaction tubes were incubated at 60° C. in a 96-well optical plate (MicroAmp® Optical 96-Well Reaction Plate, Applied Biosystems) and the amount of released fluorescence was measured at the indicated time points using an ABI Prism 7700.

[9] = 5M chaotropic salts, 2% Tween 20
[10] = Fifteen Minutes Incubation, Proteinase K not present (N)
[11] = Fifteen Minutes Incubation, Proteinase K present (Y)
[12] = Fifty-Two Minutes Incubation, Proteinase K not present (N)
[13] = Fifty-Two Minutes Incubation, Proteinase K present (Y)

Compound: CCCCCCCCCCCC[N+](C)(C)CC.[Br-] [DEDTAB, dodecylethyldimethylammonium bromide]
relative solubility in chaotropic salt solutions (in words) [1, 9]: more soluble than larger surfactants

Compound: CCCCCCCCCCCCCCCC[N+](C)(C)C.[Cl-] [CTACl, cetyltrimethylammonium chloride]
high molecular weight nucleic acid by gel electrophoresis ([2]; with either 1-methy-2-pyrolidinone or acridine orange): High molecular weight nucleic acid was also present
release of A260 absorbing material from the sample [3]: released A260 absorbing material
nucleic acid released, surfactant in reaction composition with aurintricarboxylic acid [4]: released a large amount of high integrity nucleic acid

relative solubility in chaotropic salt solutions (in words) [1]: more soluble than larger surfactants
Compound: CCCCCCCCCCCC[P+](c1ccccc1)(c1ccccc1)c1ccccc1.[Br-] [DTPB, dodecyltriphenylphosphonium bromide]

Compound: CCCCCCCCCCCCCCCC[N+](C)(C)C.[Br-] [CTAB, cetyltrimethylammonium bromide]
Tissue Disaggregation [5, 10]: 0
Tissue Disaggregation [5, 11]: 4
Tissue Disaggregation [5, 12]: 0
Tissue Disaggregation [5, 13]: 4
disaggregation of the tissue sample (in words) ([5]; combination with Proteinase K, 15 and 52 minutes): total disaggregation
disaggregation of the tissue sample (in words) ([5]; surfactant alone, no Proteinase K): no apparent sample disaggregation
release of A260 absorbing material from the sample [3]: released A260 absorbing material
nucleic acid released, surfactant in reaction composition with aurintricarboxylic acid [4]: released a large amount of high integrity nucleic acid
Solubility of surfactant [6]: S
maceration of liver slice ([7]; 1 mg/ml Proteinase K, 16-24 hr, additive 0.1%): 100%
maceration of liver slice ([7]; 1 mg/ml Proteinase K, 16-24 hr, additive 1%): 100%
maceration of liver slice ([7]; 1 mg/ml Proteinase K, 1 hr, additive 0.1%): 100%
maceration of liver slice ([7]; 1 mg/ml Proteinase K, 1 hr, additive 1%): 100%
ability to macerate the liver sample (in words) [7]: most effectively macerated the sample
effect on the proteolytic activity of Proteinase K ([7]; liver slices): appeared to enhance the proteolytic activity of Proteinase K

Compound: CCCCCCCCCCCCCCCC[N+](C)(C)C.[Br-] [Hexadecyltrimethylammonium bromide, hexadecyltrimethylammonium bromide]
Tissue Disaggregation [5, 10]: 0
Tissue Disaggregation [5, 11]: 0
Tissue Disaggregation [5, 12]: 0
Tissue Disaggregation [5, 13]: 1
high molecular weight nucleic acid by gel electrophoresis ([2]; all reaction compositions containing the surfactant, FIG. 8): high molecular weight nucleic acid was apparent

Compound: CCCCCCCCCCCC[N+](C)(C)C.[Cl-] [DTACl, dodecyltrimethylammonium chloride]
relative solubility in chaotropic salt solutions (in words) [1, 9]: more soluble than larger surfactants

Compound: CCCCCCCCCCCCOS(=O)(=O)[O-].[Na+] [SDS, sodium dodecyl sulfate]
Tissue Disaggregation [5, 10]: 0
Tissue Disaggregation [5, 11]: 3
Tissue Disaggregation [5, 12]: 0
Tissue Disaggregation [5, 13]: 3
release of A260 absorbing material from the sample [3]: released A260 absorbing material
nucleic acid released, surfactant in reaction composition with aurintricarboxylic acid [4]: less nucleic acid was released
effect on Proteinase K activity on the casein substrate [8]: enhances the activity of Proteinase K
maceration of liver slice ([7]; 1 mg/ml Proteinase K, 2-5 hr, additive 1%): 50%
maceration of liver slice ([7]; No Proteinase K, 2-5 hr, additive 1%): 0%

relative solubility in chaotropic salt solutions (in words) [1]: more soluble than larger surfactants
Compound: CCCCCCCCCC[N+](C)(C)C.[Br-] [Sample D10TAB, decyltrimethylammonium bromide]

Compound: CN1CCCC1=O [1-methyl 2-pyrrolidinone, 1-methyl-2-pyrolidinone]
amount of nucleic acid released in comparison with surfactant without an additive ([2]; 10% additive with 1% CTACl): greater
amount of nucleic acid released in comparison with surfactant without an additive ([2]; 10% additive with 1% HDTAB): less
maceration of liver slice ([7]; No Proteinase K, 16-24 hr, additive 2%): 0%

Compound: CCCCCCCCCCCC(=O)N(C)CC(=O)[O-].[Na+] [Sarkosyl, sodium N-lauroylsacrosinate]
release of A260 absorbing material from the sample [3]: released A260 absorbing material
maceration of liver slice ([7]; No Proteinase K, 72 hr, additive 2%): 0%
